Measured values: patent publication US11214803B2, “Modulators of YAP1 expression” (Ionis Pharmaceuticals, Inc., priority 2019, dated 2022)
Strand notation (5' to 3'): a small letter for the sugar, then the base; units joined by * are phosphorothioate-linked, units joined directly phosphodiester-linked; [ ] holds rarer units or linkages, { } end groups; capitals alone tell only the bases. e = 2'-O-(2-methoxyethyl) (MOE); k = constrained ethyl (cEt); [5mC] = 5-methylcytosine; d = 2'-deoxy (DNA); m = 2'-O-methyl

These substances were tested on Yap1 mRNA (assay: Antisense inhibition of human Yap1 in SNU-449 cells by modified oligonucleotides, single dose (Example 5, RTS36584)). Conditions: Table 39; SNU-449 cells, 10,000 cells per well, free uptake, 2,000 nM oligonucleotide, approx. 48 hours; RTS36584; normalized to RIBOGREEN; Yap1 mRNA relative to untreated control.
Assay type: cell-based
How it was run: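 Free uptake, 2,000 nM, ~48 h, SNU-449 at 10,000 cells/well. Read-out: qRT-PCR (RTS36584), RIBOGREEN-normalised, expressed as % UTC. Asterisk = oligo hits amplicon region.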

Compared with “1198453 (kG*dA*d[5mC]*dT*dA*dA*dG*dT*dA*dA*dG*kG*eT*kT*eT*k[5mC]; antisense) [Compound 1198453]”, “1198448 (kA*dG*dT*dA*dA*dG*dG*dT*dT*dT*d[5mC]*k[5mC]*e[5mC]*kA*eG*kA) [Compound 1198448]” is lower in “YAP1 (% UTC)” value: 48 % UTC for the first, 36 % UTC for the second.

First: 1198409 (kA*dG*dT*dG*d[5mC]*dT*dT*dT*dG*dG*dA*kA*eG*kA*eT*k[5mC]; antisense) [Compound 1198409]
Second: 1198432 (kT*dA*dA*dT*dA*dT*dT*dG*d[5mC]*dA*dA*kT*e[5mC]*kT*eG*kT; antisense) [Compound 1198432]
The “YAP1 (% UTC)” value of the first is lower: 19 % UTC for the first, 70 % UTC for the second.

Same assay, conditions: Table 40 (separate experiment); SNU-449 cells, 10,000 cells per well, free uptake, 2,000 nM oligonucleotide, approx. 48 hours; RTS36584; normalized to RIBOGREEN; Yap1 mRNA relative to untreated control

Going from “1198724 (kA*eG*kA*dG*dT*dA*dT*dG*dT*dG*dG*d[5mC]*eA*eA*kT*kA; antisense) [Compound 1198724]” to “1198796 (antisense kA*eG*kT*dA*dA*dG*dG*dT*dT*dT*d[5mC]*d[5mC]*e[5mC]*eA*kG*kA) [Compound 1198796]”, the “YAP1 (% UTC)” value rises from 16 % UTC to 32 % UTC.

With “1198758 (kA*eT*kA*dG*dT*dG*d[5mC]*dT*dT*dT*dG*dG*eA*eA*kG*kA; antisense) [Compound 1198758]” the “YAP1 (% UTC)” value was 47 % UTC.

Same assay, conditions: Table 41; SNU-449 cells, 10,000 cells per well, free uptake, 2,000 nM modified oligonucleotide, approximately 48 hours; RTS36584; normalized to RIBOGREEN; Yap1 mRNA relative to untreated control cells

Compared with “1198793 (antisense k[5mC]*eT*kT*dT*dA*dA*dA*dG*dT*dG*dT*dA*eT*eG*kT*k[5mC]) [Compound 1198793]”, “1198632 (kG*kA*dA*dA*dT*dT*dG*dT*d[5mC]*dT*d[5mC]*dA*kT*eG*k[5mC]*e[5mC]; antisense) [Compound 1198632]” is lower in “YAP1 (% UTC)” value: 34 % UTC for the first, 21 % UTC for the second.

Same assay, conditions: Table 42 (separate experiment); SNU-449 cells, 10,000 cells per well, free uptake, 2,000 nM modified oligonucleotide, approximately 48 hours; RTS36584; normalized to RIBOGREEN; Yap1 mRNA relative to untreated control cells

Compared with “1198699 (kA*kA*dA*dG*dT*dG*dT*dA*dT*dG*dT*d[5mC]*kA*eG*kA*eA; antisense) [Compound 1198699]”, “1198203 (kG*kG*dA*dA*dA*dT*dT*dG*dT*d[5mC]*dT*e[5mC]*eA*eT*kG*k[5mC]; antisense) [Compound 1198203]” is lower in “YAP1 (% UTC)” value: 30 % UTC for the first, 19 % UTC for the second.

First: 1198224 (kA*k[5mC]*dT*dT*dT*dT*dA*d[5mC]*dA*dT*dT*eA*eG*eG*kA*kA) [Compound 1198224]
Second: 1198207 (kA*kG*dT*dA*dT*dG*dT*dG*dG*d[5mC]*dA*eA*eT*eA*kA*kT; antisense) [Compound 1198207]
The “YAP1 (% UTC)” value of the first is lower: 74 % UTC for the first, 91 % UTC for the second.

First: 1198706 (kA*kG*dT*dA*dA*dG*dG*dT*dT*dT*d[5mC]*d[5mC]*k[5mC]*eA*kG*eA; antisense) [Compound 1198706]
Second: 1198698 (antisense kA*kA*dG*dT*dG*dT*dA*dT*dG*dT*d[5mC]*dA*kG*eA*kA*eG) [Compound 1198698]
The “YAP1 (% UTC)” value of the first is higher: 39 % UTC for the first, 12 % UTC for the second.

Same assay, conditions: Table 43 experiment; SNU-449 cells, 10,000 cells per well, free uptake, 2,000 nM, approximately 48 hours; RTS36584; Yap1 mRNA normalized to RIBOGREEN, relative to untreated control cells

First: 1198216 (kT*kA*dT*dA*dA*d[5mC]*dT*dG*dG*dG*d[5mC]*eA*eA*eA*kT*kT; antisense) [Compound 1198216]
Second: 1198479 (antisense kT*kT*dA*d[5mC]*dA*dT*dT*dA*dG*dG*dA*eA*k[5mC]*eA*kA*eG) [Compound 1198479]
The “YAP1 (% UTC)” value of the first is higher: 89 % UTC for the first, 65 % UTC for the second.

Compared with “1198243 (kG*kA*dT*dT*dT*dA*dG*dG*dA*dT*dG*e[5mC]*eA*eT*kG*kG; antisense) [Compound 1198243]”, “1198260 (kT*kA*dA*dT*dA*dT*dT*dG*d[5mC]*dA*dA*eT*e[5mC]*eT*kG*kT; antisense) [Compound 1198260]” is higher in “YAP1 (% UTC)” value: 8 % UTC for the first, 106 % UTC for the second.

Same assay, conditions: Table 44 experiment; SNU-449 cells, 10,000 cells per well, free uptake, 2,000 nM, approximately 48 hours; RTS36584; Yap1 mRNA normalized to RIBOGREEN, relative to untreated control cells

Going from “1198516 (kA*kT*dA*dT*dT*dG*d[5mC]*dA*dA*dT*d[5mC]*eT*kG*eT*k[5mC]*eT; antisense) [Compound 1198516]” to “1198521 (kA*kT*dG*dT*dA*dA*dT*dA*dT*dT*dG*e[5mC]*kA*eA*kT*e[5mC]; antisense) [Compound 1198521]”, the “YAP1 (% UTC)” value falls from 50 % UTC to 44 % UTC.

Same assay, conditions: Table 45; Yap1 mRNA as percent of untreated control, SNU-449 cells, single dose

First: 1198967 (kT*kA*dA*dG*dG*dT*dT*dT*d[5mC]*d[5mC]*d[5mC]*kA*dG*kA*dT*kT; antisense) [Compound 1198967]
Second: 1198955 (kA*kT*dG*dT*dA*dA*dT*dA*dT*dT*dG*k[5mC]*dA*kA*dT*k[5mC]; antisense) [Compound 1198955]
The “YAP1 (% UTC)” value of the first is lower: 65 % UTC for the first, 92 % UTC for the second.

For “1198968 (kA*kG*dT*dA*dA*dG*dG*dT*dT*dT*d[5mC]*k[5mC]*d[5mC]*kA*dG*kA; antisense) [Compound 1198968]”, the “YAP1 (% UTC)” value was 57 % UTC.

Same assay, conditions: Table 46; Yap1 mRNA as percent of untreated control, SNU-449 cells, single dose

Compared with “1095426 (antisense k[5mC]*kT*dG*dA*dG*dG*dT*dA*dT*dA*dA*k[5mC]*eT*kG*eG*kG) [Compound 1095426]”, “1198836 (kG*kG*dA*dA*dG*dA*dT*d[5mC]*dT*dG*dA*kA*eA*k[5mC]*eT*k[5mC]; antisense) [Compound 1198836]” is lower in “YAP1 (% UT)” value: 54 % UT for the first, 43 % UT for the second.

First: 1198820 (kT*kA*dT*dA*dT*dT*dA*dG*dA*dG*dT*kA*eT*kG*eT*kG; antisense) [Compound 1198820]
Second: 1198846 (kT*kT*dA*dG*dG*dA*dT*dG*d[5mC]*dA*dT*kG*eG*kT*eT*kT; antisense) [Compound 1198846]
The “YAP1 (% UT)” value of the first is higher: 62 % UT for the first, 34 % UT for the second.

Going from “1198869 (kA*kT*dG*dT*dA*dA*dT*dA*dT*dT*dG*k[5mC]*eA*kA*eT*k[5mC]; antisense) [Compound 1198869]” to “1198812 (antisense kA*kT*dA*dT*dG*dG*dA*dA*dA*dT*dT*kG*eT*k[5mC]*eT*k[5mC]) [Compound 1198812]”, the “YAP1 (% UT)” value falls from 49 % UT to 26 % UT.

Same assay, conditions: Table 48; Yap1 mRNA level relative to untreated control; modified oligonucleotides targeting SEQ ID NO.: 1 and 2

First: 1198333 (kA*kT*kT*d[5mC]*dA*dG*dA*dT*dT*dT*dA*dG*kG*eA*kT*eG; antisense) [Compound 1198333]
Second: 1198292 (kA*kT*kA*dT*dG*dG*dA*dA*dA*dT*dT*dG*kT*e[5mC]*kT*e[5mC]; antisense) [Compound 1198292]
The “YAP1 (% UT)” value of the first is higher: 77 % UT for the first, 58 % UT for the second.

Same assay, conditions: Table 49; Yap1 mRNA level relative to untreated control; modified oligonucleotides targeting SEQ ID NO.: 1 and 2

First: 1198554 (antisense kT*kT*kA*dG*dA*dG*dT*dA*dT*dG*dT*dG*kG*k[5mC]*kA*eA) [Compound 1198554]
Second: 1198359 (k[5mC]*kT*kT*dT*dA*dA*dA*dG*dT*dG*dT*dA*kT*eG*kT*e[5mC]; antisense) [Compound 1198359]
The “YAP1 (% UT)” value of the first is lower: 16 % UT for the first, 28 % UT for the second.

“1198569 (antisense CACTTTTACATTAGGA; chemistry not fully specified) [Compound 1198569]” was tested, and the “YAP1 (% UT)” value was 14 % UT.

Same assay, conditions: Table 50; Yap1 mRNA remaining as percent of untreated control (UT), SNU-449 cells, single dose

Going from “1197285 (kA*kG*kA*dG*mU*dA*dT*dG*dT*dG*dG*d[5mC]*dA*kA*kT*kA; antisense) [Compound 1197285]” to “1198587 (antisense kG*kA*kT*dT*dT*dA*dG*dG*dA*dT*dG*d[5mC]*kA*kT*kG*eG) [Compound 1198587]”, the “YAP1 (% UT)” value rises from 28 % UT to 41 % UT.

Compared with “1198561 (antisense kG*kG*kT*dA*dT*dA*dA*d[5mC]*dT*dG*dG*dG*k[5mC]*kA*kA*eA) [Compound 1198561]”, “1198626 (kA*kG*kA*d[5mC]*dT*dA*dA*dG*dT*dA*dA*dG*kG*kT*kT*eT; antisense) [Compound 1198626]” is higher in “YAP1 (% UT)” value: 29 % UT for the first, 99 % UT for the second.

Same assay, conditions: Table 51; Yap1 mRNA remaining as percent of untreated control (UT), SNU-449 cells, single dose

First: 1197304 (k[5mC]*kT*k[5mC]*dT*mU*dA*dT*dA*dT*dG*dG*dT*dT*kT*kT*kG; antisense) [Compound 1197304]
Second: 1197274 (kA*kG*kT*dA*mA*dG*dG*dT*dT*dT*d[5mC]*d[5mC]*d[5mC]*kA*kG*kA) [Compound 1197274]
The “YAP1 (% UT)” value of the first is higher: 45 % UT for the first, 31 % UT for the second.

Same assay, conditions: Table 52; Yap1 mRNA, modified oligonucleotides targeting SEQ ID NO: 1 and 2

First: 1200813 (k[5mC]*kT*kT*dT*dT*mA*d[5mC]*dA*dT*dT*dA*dG*dG*kA*kA*k[5mC]; antisense) [Compound 1200813]
Second: 1200833 (kG*kA*kT*dT*dT*mA*dG*dG*dA*dT*dG*d[5mC]*dA*kT*kG*kG; antisense) [Compound 1200833]
The “YAP1 (% UT)” value of the first is higher: 58 % UT for the first, 31 % UT for the second.

Going from “1200861 (kT*kT*kA*dA*dA*mG*dT*dG*dT*dA*dT*dG*dT*k[5mC]*kA*kG; antisense) [Compound 1200861]” to “1200852 (kT*kG*kT*dA*dA*mU*dA*dT*dT*dG*d[5mC]*dA*dA*kT*k[5mC]*kT; antisense) [Compound 1200852]”, the “YAP1 (% UT)” value rises from 10 % UT to 32 % UT.

In the case of “1200789 (G_{ks}G_{ks}A_{ks}A_{ds}A_{ds}U_{ys}T_{ds}G_{ds}T_{ds}^{m}C_{ds}T_{ds}^{m}C_{ds}A_{ds}T_{ks}G_{ks}^{m}C_{k}; antisense; as printed in the source, key not given here) [Compound 1200789]”, the “YAP1 (% UT)” value is reported as 12 % UT.

Same assay, conditions: Yap1 mRNA, percent of untreated control; modified oligonucleotides targeting SEQ ID NO: 1 and 2; Table 47

Compared with “1197178 (antisense kA*kA*kT*dT*dG*dT*d[5mC]*dT*d[5mC]*dA*dT*dG*d[5mC]*k[5mC]*kT*kT) [Compound 1197178]”, “1197209 (antisense kT*kG*kT*dA*dA*dT*dA*dT*dT*dG*d[5mC]*dA*dA*kT*k[5mC]*kT) [Compound 1197209]” is higher in “YAP1 (% UT)” value: 12 % UT for the first, 33 % UT for the second.
